Data from ChEMBL document CHEMBL6074677, “Development of dual V1a/V2 antagonists containing triazolobenzazepine scaffold” (Eur J Med Chem, 2025).

What was measured:
[1] = target: Vasopressin V2 receptor (Homo sapiens, UniProt P30518); assay: Displacement of [3H]AVP from human vasopressin V2 receptor expressed in human 1321N1 cells assessed as inhibition constant; format: cell-based
[2] = target: T1, Vasopressin V1a receptor (Homo sapiens, UniProt P37288); assay: Displacement of [3H]AVP from human vasopressin V1a receptor expressed in human 1321N1 cells assessed as inhibition constant; format: cell-based
T1 sequence (P37288 whole entry): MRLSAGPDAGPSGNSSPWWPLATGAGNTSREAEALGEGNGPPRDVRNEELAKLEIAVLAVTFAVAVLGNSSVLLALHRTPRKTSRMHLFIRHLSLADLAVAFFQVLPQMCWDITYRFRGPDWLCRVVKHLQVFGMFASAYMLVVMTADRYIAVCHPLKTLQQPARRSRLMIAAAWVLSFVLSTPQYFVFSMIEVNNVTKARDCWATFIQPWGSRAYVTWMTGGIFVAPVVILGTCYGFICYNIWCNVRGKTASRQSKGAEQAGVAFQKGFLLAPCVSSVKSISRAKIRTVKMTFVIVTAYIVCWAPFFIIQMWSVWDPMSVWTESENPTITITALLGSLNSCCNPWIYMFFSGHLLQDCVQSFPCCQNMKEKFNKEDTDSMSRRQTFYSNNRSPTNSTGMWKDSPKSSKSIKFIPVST

[3] = Metabolic stability in rat liver microsomes assessed as intrinsic clearance at 1 uM in presence of NADPH; format: ADME, Microsome; details: read-out: CLH
[4] = Metabolic stability in mouse liver microsomes assessed as intrinsic clearance at 1 uM in presence of NADPH; format: ADME, Microsome; details: read-out: CLH
[5] = Metabolic stability in human liver microsomes assessed as intrinsic clearance at 1 uM in presence of NADPH; format: ADME, Microsome; details: read-out: CLH
[6] = target: Vasopressin V1a receptor (Mus musculus, UniProt Q62463); assay: Displacement of [3H]AVP from mouse vasopressin V1a receptor expressed in human 1321N1 cells assessed as inhibition constant; format: cell-based
Vasopressin V1a receptor (Mus musculus, UniProt Q62463), sequence (Q62463 whole entry): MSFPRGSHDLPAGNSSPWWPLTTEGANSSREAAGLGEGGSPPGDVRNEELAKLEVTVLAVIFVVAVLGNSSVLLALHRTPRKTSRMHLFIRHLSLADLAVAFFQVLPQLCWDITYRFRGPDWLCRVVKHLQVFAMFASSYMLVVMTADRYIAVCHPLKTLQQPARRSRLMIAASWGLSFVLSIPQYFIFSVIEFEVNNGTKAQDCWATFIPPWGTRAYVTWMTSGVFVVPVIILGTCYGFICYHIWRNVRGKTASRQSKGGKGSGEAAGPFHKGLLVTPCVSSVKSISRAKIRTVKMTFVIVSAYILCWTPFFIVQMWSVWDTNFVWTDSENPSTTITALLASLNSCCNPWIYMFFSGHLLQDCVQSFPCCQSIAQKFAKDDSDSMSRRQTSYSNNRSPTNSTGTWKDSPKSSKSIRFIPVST

[7] = target: Vasopressin V1a receptor (Mus musculus) (UniProt Q62463); assay: In vivo antagonist activity at vasopressin V1a receptor in male NMRI mouse assessed as inhibition of oxytocin-induced scratching behavior at 1 mg/kg, po pretreated with compound for 60 mins followed by oxytocin administration and measured after 1 hrs relative to control; format: functional, organism-based; details: time 120.0 min
Vasopressin V1a receptor (Mus musculus), sequence (Q62463 whole entry, looked up): as the sequence (Q62463 whole entry) above

[8] = target: T1, Vasopressin V1a receptor; assay: Displacement of [3H]AVP from human vasopressin V1a receptor expressed in human 1321N1 cells; format: cell-based
[9] = target: Vasopressin V1a receptor (Mus musculus) (UniProt Q62463); assay: In vivo antagonist activity at vasopressin V1a receptor in male NMRI mouse assessed as inhibition of oxytocin-induced scratching behavior at 3 mg/kg, po pretreated with compound for 60 mins followed by oxytocin administration and measured after 1 hrs relative to control; format: functional, organism-based; details: time 120.0 min
[10] = target: Vasopressin V1a receptor (Mus musculus) (UniProt Q62463); assay: In vivo antagonist activity at vasopressin V1a receptor in male NMRI mouse assessed as inhibition of oxytocin-induced scratching behavior at 0.3 mg/kg, po pretreated with compound for 60 mins followed by oxytocin administration and measured after 1 hrs relative to control; format: functional, organism-based; details: time 120.0 min
[11] = target: Voltage-gated inwardly rectifying potassium channel KCNH2 (Homo sapiens, UniProt Q12809); assay: Inhibition of human ERG expressed in CHO cells at -80 mV holding potential measured for 7 to 10 mins by automated patch clamp method; format: toxicity, cell-based
Voltage-gated inwardly rectifying potassium channel KCNH2, sequence (Q12809 whole entry): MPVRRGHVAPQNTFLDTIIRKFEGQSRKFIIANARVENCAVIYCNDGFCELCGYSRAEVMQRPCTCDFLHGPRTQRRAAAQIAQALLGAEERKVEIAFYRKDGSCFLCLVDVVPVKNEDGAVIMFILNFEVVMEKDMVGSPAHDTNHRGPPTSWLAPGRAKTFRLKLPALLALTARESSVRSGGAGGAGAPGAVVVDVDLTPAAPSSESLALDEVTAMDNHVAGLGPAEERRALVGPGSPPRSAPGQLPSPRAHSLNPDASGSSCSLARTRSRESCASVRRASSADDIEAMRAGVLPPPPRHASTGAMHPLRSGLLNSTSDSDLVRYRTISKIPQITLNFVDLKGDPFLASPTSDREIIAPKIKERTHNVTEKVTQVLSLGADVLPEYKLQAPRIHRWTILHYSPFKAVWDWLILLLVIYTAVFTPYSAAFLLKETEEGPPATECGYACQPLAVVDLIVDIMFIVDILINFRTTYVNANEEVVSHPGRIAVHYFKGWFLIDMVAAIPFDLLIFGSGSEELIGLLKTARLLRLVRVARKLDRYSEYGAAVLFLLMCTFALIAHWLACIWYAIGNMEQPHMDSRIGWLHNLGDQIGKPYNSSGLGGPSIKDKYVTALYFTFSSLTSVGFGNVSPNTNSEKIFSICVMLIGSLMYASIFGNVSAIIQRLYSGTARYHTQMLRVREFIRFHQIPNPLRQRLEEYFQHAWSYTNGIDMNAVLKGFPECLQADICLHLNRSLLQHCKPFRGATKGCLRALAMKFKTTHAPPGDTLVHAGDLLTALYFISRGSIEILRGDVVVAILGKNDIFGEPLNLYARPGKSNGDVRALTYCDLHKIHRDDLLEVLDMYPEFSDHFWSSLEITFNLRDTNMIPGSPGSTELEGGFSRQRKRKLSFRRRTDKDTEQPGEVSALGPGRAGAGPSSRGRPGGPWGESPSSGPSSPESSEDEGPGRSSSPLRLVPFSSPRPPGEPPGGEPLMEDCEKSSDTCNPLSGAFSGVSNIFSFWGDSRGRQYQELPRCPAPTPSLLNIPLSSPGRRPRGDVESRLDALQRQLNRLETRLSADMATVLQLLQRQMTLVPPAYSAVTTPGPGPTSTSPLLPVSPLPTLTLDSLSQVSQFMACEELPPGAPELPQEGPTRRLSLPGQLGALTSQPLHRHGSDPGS

[12] = Apparent permeability across apical to basolateral side in vinblastine treated human Caco-2 cells incubated for 15 to 60 mins by HPLC analysis; format: ADME, cell-based; details: time 15-60 min
[13] = target: Vasopressin V1a receptor (Mus musculus) (UniProt Q62463); assay: In vivo antagonist activity at vasopressin V1a receptor in male NMRI mouse assessed as inhibition of oxytocin-induced scratching behavior at 0.1 mg/kg, po pretreated with compound for 60 mins followed by oxytocin administration and measured after 1 hrs relative to control; format: functional, organism-based; details: time 120.0 min

Vasopressin V2 receptor, sequence (P30518 whole entry): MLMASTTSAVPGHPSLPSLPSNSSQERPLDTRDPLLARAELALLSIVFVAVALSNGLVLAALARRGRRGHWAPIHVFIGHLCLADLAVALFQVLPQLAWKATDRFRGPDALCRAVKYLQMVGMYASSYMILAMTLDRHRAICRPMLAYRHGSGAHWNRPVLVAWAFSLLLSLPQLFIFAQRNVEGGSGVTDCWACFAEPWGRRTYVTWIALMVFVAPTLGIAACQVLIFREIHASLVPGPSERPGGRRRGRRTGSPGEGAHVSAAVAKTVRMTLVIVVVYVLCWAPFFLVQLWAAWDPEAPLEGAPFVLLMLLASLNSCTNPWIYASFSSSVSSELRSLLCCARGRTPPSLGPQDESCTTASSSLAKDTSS

| SMILES | Ki [1] | Ki [2] | microsomal CLint at 1 µM [3] | microsomal CLint at 1 µM [4] | microsomal CLint at 1 µM [5] | Ki [6] | inhibition [7] | IC50 [8] | inhibition [9] | inhibition [10] | IC50 [11] | Papp A→B [12] | inhibition [13] |
| --- | --- | --- | --- | --- | --- | --- | --- | --- | --- | --- | --- | --- | --- |
| Clc1ccc2c(c1)CC1(Cc3nnc(N4CCC(c5cccc6c5OCO6)CC4)n3-2)OCCO1 | 0.9 nM | 0.2 nM | – | – | – | – | – | – | – | – | – | – | – |
| Cc1cccc(N2CCN(c3nnc4n3-c3ccc(Cl)cc3CC(C(N)=O)C4)CC2)c1C (stereo not given) | 13 nM | 0.65 nM | 14.5 µL/min/mg | 9.1 µL/min/mg | 5.1 µL/min/mg | – | – | – | – | – | – | – | – |
| Cc1cccc(N2CCN(c3nnc4n3-c3ccc(Cl)cc3CC3(C4)OCCO3)CC2)c1C | 0.7 nM | 0.5 nM | 28 µL/min/mg | 23.3 µL/min/mg | 5.8 µL/min/mg | 0.4 nM | 83% | 5.7 nM | 104% | 69% | 10000 nM | – | – |
| Clc1ccc2c(c1)CC1(Cc3nnc(N4CCC5(CC4)OCc4ccccc45)n3-2)OCCO1 | 1.6 nM | – | 166 µL/min/mg | 194 µL/min/mg | 12 µL/min/mg | – | – | – | – | – | – | – | – |
| Clc1ccc2c(c1)CC1(Cc3nnc(C4CCN(c5cccc6c5CCO6)CC4)n3-2)OCCO1 | 26 nM | 0.3 nM | – | – | – | – | – | – | – | – | – | – | – |
| Cc1nc2c([nH]1)-c1ccccc1N(C(=O)c1ccc(NC(=O)c3ccccc3-c3ccccc3)cc1)CC2 [CONIVAPTAN] | – | – | – | – | – | – | – | – | – | – | > 5000 nM | 2.9 ×10⁻⁶ cm/s | – |
| CC1(C)Cc2cccc(N3CCN(c4nnc5n4-c4ccc(Cl)cc4CC4(C5)OCCO4)CC3)c2O1 | 24 nM | 0.82 nM | 113 µL/min/mg | 99.5 µL/min/mg | 107 µL/min/mg | – | – | – | – | – | – | – | – |
| Clc1ccc2c(c1)CC1(Cc3nnc(N4CCC(Oc5ccccn5)CC4)n3-2)OCCO1 | 20 nM | – | 33.3 µL/min/mg | 28.4 µL/min/mg | 10.9 µL/min/mg | – | – | – | – | – | 8200 nM | 40.4 ×10⁻⁶ cm/s | – |
| Clc1ccc2c(c1)CC1(Cc3nnc(C4CCN(c5cccc6c5OCC6)CC4)n3-2)OCCO1 | 4 nM | 0.2 nM | – | – | – | – | – | – | – | – | – | – | – |
| Cc1ccccc1C(=O)Nc1ccc(C(=O)N2CCCC(O)c3cc(Cl)ccc32)c(C)c1 (stereo not given) [TOLVAPTAN] | – | – | 168 µL/min/mg | 32 µL/min/mg | 12 µL/min/mg | – | – | – | – | – | – | 46.7 ×10⁻⁶ cm/s | – |
| COC1(c2ccccc2)CCN(c2nnc3n2-c2ccc(Cl)cc2CC(C(N)=O)C3)CC1 (stereo not given) | 1610 nM | 1.3 nM | 7.1 µL/min/mg | 13.9 µL/min/mg | 3 µL/min/mg | – | – | – | – | – | – | – | – |
| Clc1ccc2c(c1)CC1(CCCO1)Cc1nnc(N3CCN(c4cccc5c4OCC5)CC3)n1-2 (stereo not given) | 5.1 nM | 1.4 nM | – | – | – | – | – | – | – | – | – | – | – |
| Clc1ccc2c(c1)CC1(Cc3nnc(C4CCN(c5cccc6c5COC6)CC4)n3-2)OCCO1 | 26 nM | 0.21 nM | – | – | – | – | – | – | – | – | – | – | – |
| Clc1ccc2c(c1)CC1(Cc3nnc([C@H]4CC[C@H](Oc5ccccn5)CC4)n3-2)OCCO1 | – | – | 28 µL/min/mg | 25 µL/min/mg | 13 µL/min/mg | – | 86% | – | 80% | 42% | 9100 nM | 59.3 ×10⁻⁶ cm/s | – |
| Clc1ccc2c(c1)CC1(CCOCC1)Cc1nnc(N3CCN(c4cccc5c4OCC5)CC3)n1-2 | 1.1 nM | 0.41 nM | 48.2 µL/min/mg | 70.7 µL/min/mg | 78.3 µL/min/mg | – | – | – | – | – | – | – | – |
| Clc1ccc2c(c1)CC1(Cc3nnc(N4CCN(c5ccccn5)CC4)n3-2)OCCO1 | 4.7 nM | – | 25.4 µL/min/mg | 21.7 µL/min/mg | 9.1 µL/min/mg | – | – | – | – | – | – | 39.9 ×10⁻⁶ cm/s | – |
| NC(=O)C1Cc2cc(Cl)ccc2-n2c(nnc2N2CCN(c3cccc(Cl)c3)CC2)C1 (stereo not given) | 259 nM | 7.7 nM | 7 µL/min/mg | 9.2 µL/min/mg | 3.7 µL/min/mg | – | – | – | – | – | – | – | – |

| SMILES | Ki [1] | Ki [2] | microsomal CLint at 1 µM [3] | microsomal CLint at 1 µM [4] | microsomal CLint at 1 µM [5] | Ki [6] | inhibition [7] | IC50 [8] | inhibition [9] | inhibition [10] | IC50 [11] | Papp A→B [12] | inhibition [13] |
| --- | --- | --- | --- | --- | --- | --- | --- | --- | --- | --- | --- | --- | --- |
| Clc1ccc2c(c1)CC1(Cc3nnc(N4CCN(c5cccc6c5COC6)CC4)n3-2)OCCO1 | 2.8 nM | 0.5 nM | 29.4 µL/min/mg | 30.5 µL/min/mg | 17 µL/min/mg | – | – | – | – | – | 7900 nM | – | – |
| Clc1ccc2c(c1)CC1(Cc3nnc(N4CCN(c5cccc6c5CCO6)CC4)n3-2)OCCO1 | 2.2 nM | 0.38 nM | 28.2 µL/min/mg | 21.8 µL/min/mg | 11.5 µL/min/mg | – | – | – | – | – | 10000 nM | 30 ×10⁻⁶ cm/s | – |
| NC(=O)C1Cc2cc(Cl)ccc2-n2c(nnc2N2CCC(N3CCCCC3)CC2)C1 (stereo not given) | – | 98 nM | 0.2 µL/min/mg | 0.2 µL/min/mg | 0.2 µL/min/mg | – | – | – | – | – | – | – | – |
| Clc1ccc2c(c1)CC1(Cc3nnc(N4CCN(c5nccc6ccoc56)CC4)n3-2)OCCO1 | 21 nM | 0.28 nM | 110 µL/min/mg | 44.6 µL/min/mg | 18 µL/min/mg | – | – | – | – | – | – | – | – |
| Clc1ccc2c(c1)CC1(Cc3nnc(N4CCN(c5cccc6c5OCO6)CC4)n3-2)OCCO1 | 0.8 nM | 0.25 nM | 31.7 µL/min/mg | 25.1 µL/min/mg | 8.8 µL/min/mg | – | – | – | – | – | 11000 nM | 31 ×10⁻⁶ cm/s | – |
| COc1ccccc1N1CCN(c2nnc3n2-c2ccc(Cl)cc2CC2(C3)OCCO2)CC1 | 2 nM | 0.4 nM | – | – | – | – | – | – | – | – | – | – | – |
| O=C1c2ccccc2CCN1C1CCN(c2nnc3n2-c2ccc(Cl)cc2CC2(C3)OCCO2)CC1 | 13 nM | 0.25 nM | – | – | – | – | – | – | – | – | – | – | – |
| Clc1ccc2c(c1)CC1(Cc3nnc(N4CCN(c5nccc6ccsc56)CC4)n3-2)OCCO1 | 6.5 nM | 0.14 nM | 141 µL/min/mg | 83.3 µL/min/mg | 24.3 µL/min/mg | – | – | – | – | – | – | – | – |
| COC1(c2ccccc2)CCN(c2nnc3n2-c2ccc(Cl)cc2CC2(C3)OCCO2)CC1 | 11 nM | 0.17 nM | 62.2 µL/min/mg | 51.7 µL/min/mg | 6.9 µL/min/mg | – | – | – | – | – | 11000 nM | 34 ×10⁻⁶ cm/s | – |
| OC1Cc2cc(Cl)ccc2-n2c(nnc2N2CCN(c3cccc4c3OCC4)CC2)C1 (stereo not given) | 11 nM | 1.4 nM | 26.2 µL/min/mg | 14.3 µL/min/mg | 13.5 µL/min/mg | – | – | – | – | – | – | – | – |
| NC(=O)C1Cc2cc(Cl)ccc2-n2c(nnc2N2CCC3(CC2)OCc2ccccc23)C1 (stereo not given) | 327 nM | 2.1 nM | – | – | – | – | – | – | – | – | – | – | – |
| Cc1ccccc1C(=O)NC1CCN(c2nnc3n2-c2ccc(Cl)cc2CC2(C3)OCCO2)CC1 | 9 nM | 0.35 nM | – | – | – | – | – | – | – | – | – | – | – |
| NC(=O)C1Cc2cc(Cl)ccc2-n2c(nnc2N2CCC(Oc3ccccn3)CC2)C1 (stereo not given) | 3620 nM | 1.4 nM | 7.6 µL/min/mg | 6.2 µL/min/mg | 0.5 µL/min/mg | – | – | – | – | – | – | – | – |
| Clc1ccc2c(c1)CC1(Cc3nnc(N4CCC(N5CCCCC5)CC4)n3-2)OCCO1 | 998 nM | 2.04 nM | 1.15 µL/min/mg | 1.15 µL/min/mg | 0.2 µL/min/mg | – | – | – | – | – | – | 2.4 ×10⁻⁶ cm/s | – |
| Clc1ccc2c(c1)CC1(Cc3nnc(N4CCN(c5ncccc5Cl)CC4)n3-2)OCCO1 | 1.2 nM | 0.26 nM | 51 µL/min/mg | 58.5 µL/min/mg | 10.6 µL/min/mg | – | – | – | – | – | – | – | – |
| Clc1ccc2c(c1)CC1(Cc3nnc(N4CCN(c5cccc6c5OCC6)CC4)n3-2)OCCO1 | 0.53 nM | 0.13 nM | 36.9 µL/min/mg | 27.1 µL/min/mg | 15.9 µL/min/mg | 0.5 nM | 91% | 2.2 nM | 86% | 85% | > 30000 nM | 30 ×10⁻⁶ cm/s | 81% |
| Clc1ccc2c(c1)CC1(Cc3nnc(N4CCC(c5cccc6c5OCC6)CC4)n3-2)OCCO1 | 0.7 nM | 0.2 nM | – | – | – | – | – | – | – | – | – | – | – |
